In patent US20040224910A1, “Recombinant nematode nicotinic receptor and uses” (priority 1999, published 2004):
“Also recorded” adds a separate entry of the source.

Biological target: T1, heterotrimeric UNC-63, UNC-29, LEV-1 receptor (Caenorhabditis elegans, UniProt P48181+Q27218+Q9N587)
T1 construct: used to generate a full length cDNA clone by 3′ RACE on Marathon cDNA; expressed in transfected cells; host or cells: Xenopus laevis oocytes (nuclear injection of pMT3 cDNA constructs)
Experiment: Two-electrode voltage-clamp of recombinant nAChR expressed in Xenopus laevis oocytes
Format: cell-based, C. elegans
Settings: for agonist activity on the expressed receptor: holding potential -100 mV
Description: Ovaries were surgically removed from anaesthetised mature female Xenopus laevis. The follicle layers were manually removed from healthy stage V and VI oocytes following a 15 min incubation with collagenase (type IA, 2 mg ml^−1) in a calcium-free version of standard oocyte saline. The composition of SOS was as follows (mM): NaCl 100, KCl 2, CaCl2 1.8, MgCl2 1 and HEPES 5; pH 7.6. In calcium-free saline, the CaCl2 was replaced by 1.8 mM BaCl2. […] The nucleus of each oocyte was injected with 20 nl of DNA (0.1 μg μl^−1). The injected oocytes were transferred to incubation medium composed of SOS supplemented with penicillin (100 units ml^−1), streptomycin (100 μg ml^−1), gentamycin (50 μg ml^−1) and 2.5 mM sodium pyruvate and placed at 4° C. for 30 min immediately after injection to enable recovery. Oocytes were maintained at 16° C. for 2-4 days prior to electrophysiological studies.
Oocytes were restrained with entomological pins in a Perspex chamber (80 μl volume) with a Sylgard base and perfused continuously (5 ml min^−1) with SOS using a gravity-fed system. Membrane currents were measured by the two-electrode voltage-clamp method, using 3M KCl filled electrodes (resistance=0.5-5 MΩ) and either a Geneclamp amplifier (Axon Instruments). The oocyte membrane potential was clamped at −100 mV. Signals were digitized by a TL-1 interface (Axon Instruments, U.S.A).

T1 sequence (P48181 27-493): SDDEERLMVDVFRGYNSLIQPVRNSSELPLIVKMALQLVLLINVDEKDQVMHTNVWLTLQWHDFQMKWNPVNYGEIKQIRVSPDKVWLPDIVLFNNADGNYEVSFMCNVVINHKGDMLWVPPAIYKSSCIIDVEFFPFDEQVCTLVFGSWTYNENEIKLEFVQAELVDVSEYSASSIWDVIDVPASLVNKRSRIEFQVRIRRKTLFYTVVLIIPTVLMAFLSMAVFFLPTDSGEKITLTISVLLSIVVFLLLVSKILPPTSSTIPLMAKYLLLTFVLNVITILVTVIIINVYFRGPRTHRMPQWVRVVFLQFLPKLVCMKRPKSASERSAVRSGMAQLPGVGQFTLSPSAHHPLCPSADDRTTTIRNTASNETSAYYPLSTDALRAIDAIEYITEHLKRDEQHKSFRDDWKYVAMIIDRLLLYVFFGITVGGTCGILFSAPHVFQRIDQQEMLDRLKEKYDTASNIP
T1 sequence (Q27218 32-507): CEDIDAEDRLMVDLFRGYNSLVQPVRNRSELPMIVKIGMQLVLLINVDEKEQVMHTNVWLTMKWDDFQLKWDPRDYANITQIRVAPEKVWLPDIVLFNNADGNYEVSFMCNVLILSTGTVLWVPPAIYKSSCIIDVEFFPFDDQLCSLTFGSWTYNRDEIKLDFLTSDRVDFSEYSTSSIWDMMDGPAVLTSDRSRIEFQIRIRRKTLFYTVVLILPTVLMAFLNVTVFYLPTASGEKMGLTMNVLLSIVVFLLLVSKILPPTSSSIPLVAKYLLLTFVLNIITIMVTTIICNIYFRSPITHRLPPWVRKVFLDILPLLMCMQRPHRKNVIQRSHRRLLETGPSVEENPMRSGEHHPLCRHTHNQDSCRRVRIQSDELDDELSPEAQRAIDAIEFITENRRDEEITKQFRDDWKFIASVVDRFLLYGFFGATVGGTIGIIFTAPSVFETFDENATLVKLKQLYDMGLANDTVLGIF
T1 sequence (Q9N587 24-502): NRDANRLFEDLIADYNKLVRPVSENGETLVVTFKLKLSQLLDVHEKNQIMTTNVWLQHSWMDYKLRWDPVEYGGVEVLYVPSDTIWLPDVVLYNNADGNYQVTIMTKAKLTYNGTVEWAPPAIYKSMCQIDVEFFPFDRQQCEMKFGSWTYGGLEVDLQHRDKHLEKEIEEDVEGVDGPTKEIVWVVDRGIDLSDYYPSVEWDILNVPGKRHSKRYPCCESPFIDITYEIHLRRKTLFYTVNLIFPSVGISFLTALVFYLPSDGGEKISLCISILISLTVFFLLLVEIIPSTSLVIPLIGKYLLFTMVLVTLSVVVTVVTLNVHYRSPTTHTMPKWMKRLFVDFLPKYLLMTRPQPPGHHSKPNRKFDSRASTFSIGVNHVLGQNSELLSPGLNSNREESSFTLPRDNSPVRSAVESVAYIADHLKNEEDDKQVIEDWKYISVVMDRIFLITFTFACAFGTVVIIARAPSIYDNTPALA

Row | Structure (SMILES) | agonist activity on the expressed receptor (Xenopus oocytes) | block of the agonist action of levamisole (10 μM mecamylamine, Xenopus oocytes (FIG. 6)) | antagonism of ACh-induced currents (10 μM, Xenopus oocytes)
1 | CC(=O)OCC[N+](C)(C)C.[Cl-] [ACh, Acetylcholine chloride] | full agonist | – | –
2 | c1ccc([C@H]2CN3CCSC3=N2)cc1 [levamisole] | partial agonists; also recorded: partial agonist activity | – | –
3 | CN1CCCC1c1cccnc1 (centres unmarked) [nicotine] | partial agonists; also recorded: partial agonist activity | – | –
4 | CNC1(C)C2CCC(C2)C1(C)C (centres unmarked) [Mecamylamine, mecamylamine] | – | blocked | effective antagonist
